Measured values published in patent EP2706118A1, “Method for the production of primary amines” (BASF SE, priority 2012, dated 2014).

Assay: Solubility in the aqueous reaction mixture (remark in reaction conditions)
Format: physicochemical
Conditions: ~10 mM in 20 mM bicine-buffer (pH 8.8), used an emulsion
Experimental: • ~10 mM BDG-Aldehyde (very low solubility, used an emulsion) • 10 mM L-alanine • 20 mM bicine-buffer (pH 8.8) • Cv ω-TA (0.75 mg) • Total volume: 1 ml • c) The conversion of BDG-alcohol to BDG-amine by ADH + ω-TAs was confirmed by LC-MS (Figure 3 C) and thin layer chromatography (Figure 4, lanes 1-3).

CCCCOCCOCC=O [BDG-Aldehyde]
solubility: very low
